Assay results published in ChEMBL document CHEMBL5260810, “Inhibition of bromodomain-containing protein 9 for the prevention of epigenetically-defined drug resistance” (Bioorg Med Chem Lett, 2017).

Tests used:
[1] = Cytotoxicity against human HNT-34 cells measured after 8 days; type: functional, cell-based; details: HNT-34, 192 h
LP-1 = assay: Cytotoxicity against human LP-1 cells measured after 8 days; type: functional, cell-based; details: LP-1, 192 h
NCI-H1666 = assay: Cytotoxicity against human NCI-H1666 cells measured after 8 days; type: functional, cell-based; details: NCI-H1666, 192 h
[2] = Cytotoxicity against human NCI-H1339 cells measured after 8 days; type: functional, cell-based; details: NCI-H1339, 192 h
LXF-289 cell line = assay: Cytotoxicity against human LXF-289 cell line measured after 8 days; type: functional, cell-based; details: LXF-289, 192 h
NCI-H1975 = assay: Cytotoxicity against human NCI-H1975 cells measured after 8 days; type: functional, cell-based; details: NCI-H1975, 192 h
NCI-H23 = assay: Cytotoxicity against human NCI-H23 cells measured after 8 days; type: functional, cell-based; details: NCI-H23, 192 h
[3] = Cytotoxicity against human NCI-H2731 cells measured after 8 days; type: functional, cell-based; details: NCI-H2731, 192 h
NCI-H650 = assay: Cytotoxicity against human NCI-H650 cells measured after 8 days; type: functional, cell-based; details: NCI-H650, 192 h
NCI-H82 = assay: Cytotoxicity against human NCI-H82 cells measured after 8 days; type: functional, cell-based; details: NCI-H82, 192 h
SK-MES-1 = assay: Cytotoxicity against human SK-MES-1 cells measured after 8 days; type: functional, cell-based; details: SK-MES-1, 192 h
[4] = Cytotoxicity against human EB1 cells measured after 8 days; type: functional, cell-based; details: EB1, 192 h
HT = assay: Cytotoxicity against human HT cells measured after 8 days; type: functional, cell-based; details: 192 h
OCI-LY19 = assay: Cytotoxicity against human OCILY19 cells measured after 8 days; type: functional, cell-based; details: OCI-LY19, 192 h
[5] = Cytotoxicity against human WSU-FSCCL cells measured after 8 days; type: functional, cell-based; details: 192 h
CAL-120 = assay: Cytotoxicity against human CAL-120 cells measured after 8 days; type: functional, cell-based; details: CAL-120, 192 h
HCC1419 = assay: Cytotoxicity against human HCC1419 cells measured after 8 days; type: functional, cell-based; details: HCC1419, 192 h
HCC1806 = assay: Cytotoxicity against human HCC1806 cells measured after 8 days; type: functional, cell-based; details: HCC1806, 192 h
HCC38 = assay: Cytotoxicity against human HCC38 cells measured after 8 days; type: functional, cell-based; details: HCC38, 192 h
SK-BR-3 = assay: Cytotoxicity against human SK-BR-3 cells measured after 8 days; type: functional, cell-based; details: SK-BR-3, 192 h
[6] = Cytotoxicity against human HCA7 cells measured after 8 days; type: functional, cell-based; details: HCA-7, 192 h
RKO = assay: Cytotoxicity against human RKO cells measured after 8 days; type: functional, cell-based; details: 192 h
SW948 = assay: Cytotoxicity against human SW948 cells measured after 8 days; type: functional, cell-based; details: SW948, 192 h
MEL-HO = assay: Cytotoxicity against human MEL-HO cells measured after 8 days; type: functional, cell-based; details: 192 h
NUGC-4 = assay: Cytotoxicity against human NUGC-4 cells measured after 8 days; type: functional, cell-based; details: NUGC-4, 192 h
A549 = assay: Cytotoxicity against human A549 cells measured after 8 days; type: functional, cell-based; details: A549, 192 h
[7] = target: Bromodomain-containing protein 2 (Homo sapiens, UniProt P25440); assay: Binding affinity to human partial length BRD2 bromodomain 1 long isoform (K71 to N194 residues) expressed in bacterial expression system by BROMOscan assay
[8] = target: Bromodomain-containing protein 3 (Homo sapiens, UniProt Q15059); assay: Binding affinity to human partial length BRD3 bromodomain 2 (G306 to P416 residues) expressed in bacterial expression system by BROMOscan assay
Bromodomain-containing protein 3, sequence (Q15059 whole entry, the tested form may be a part, canonical isoform): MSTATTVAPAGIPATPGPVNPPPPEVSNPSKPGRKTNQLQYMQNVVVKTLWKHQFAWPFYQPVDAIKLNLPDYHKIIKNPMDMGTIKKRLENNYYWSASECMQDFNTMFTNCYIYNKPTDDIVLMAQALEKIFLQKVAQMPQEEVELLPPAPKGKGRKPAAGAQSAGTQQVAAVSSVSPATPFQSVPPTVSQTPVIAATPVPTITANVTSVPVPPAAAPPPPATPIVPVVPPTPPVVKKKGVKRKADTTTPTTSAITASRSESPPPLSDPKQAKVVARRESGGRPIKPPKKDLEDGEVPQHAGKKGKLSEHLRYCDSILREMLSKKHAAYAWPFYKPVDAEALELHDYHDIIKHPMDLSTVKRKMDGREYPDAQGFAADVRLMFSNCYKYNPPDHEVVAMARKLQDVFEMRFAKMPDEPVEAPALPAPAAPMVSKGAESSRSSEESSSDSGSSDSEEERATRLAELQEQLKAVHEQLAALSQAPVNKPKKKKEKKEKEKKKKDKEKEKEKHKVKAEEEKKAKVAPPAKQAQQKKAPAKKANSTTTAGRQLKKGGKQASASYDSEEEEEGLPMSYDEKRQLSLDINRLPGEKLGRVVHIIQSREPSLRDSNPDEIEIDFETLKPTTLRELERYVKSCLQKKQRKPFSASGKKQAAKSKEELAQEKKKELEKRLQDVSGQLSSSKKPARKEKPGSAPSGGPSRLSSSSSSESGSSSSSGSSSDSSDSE

[9] = target: Bromodomain-containing protein 4 (Homo sapiens, UniProt O60885); assay: Binding affinity to human partial length BRD4 bromodomain 2 long isoform (K333 to E460 residues) expressed in bacterial expression system by BROMOscan assay
[10] = target: Bromodomain-containing protein 8 (Homo sapiens, UniProt Q9H0E9); assay: Binding affinity to BRD8 bromodomain 2 (unknown origin) by BROMOscan assay
[11] = target: Chromatin remodeling regulator CECR2 (Homo sapiens, UniProt Q9BXF3); assay: Binding affinity to human partial length CECR2 (P423 to D543 residues) expressed in bacterial expression system by BROMOscan assay
Chromatin remodeling regulator CECR2, sequence (Q9BXF3 whole entry, the tested form may be a part): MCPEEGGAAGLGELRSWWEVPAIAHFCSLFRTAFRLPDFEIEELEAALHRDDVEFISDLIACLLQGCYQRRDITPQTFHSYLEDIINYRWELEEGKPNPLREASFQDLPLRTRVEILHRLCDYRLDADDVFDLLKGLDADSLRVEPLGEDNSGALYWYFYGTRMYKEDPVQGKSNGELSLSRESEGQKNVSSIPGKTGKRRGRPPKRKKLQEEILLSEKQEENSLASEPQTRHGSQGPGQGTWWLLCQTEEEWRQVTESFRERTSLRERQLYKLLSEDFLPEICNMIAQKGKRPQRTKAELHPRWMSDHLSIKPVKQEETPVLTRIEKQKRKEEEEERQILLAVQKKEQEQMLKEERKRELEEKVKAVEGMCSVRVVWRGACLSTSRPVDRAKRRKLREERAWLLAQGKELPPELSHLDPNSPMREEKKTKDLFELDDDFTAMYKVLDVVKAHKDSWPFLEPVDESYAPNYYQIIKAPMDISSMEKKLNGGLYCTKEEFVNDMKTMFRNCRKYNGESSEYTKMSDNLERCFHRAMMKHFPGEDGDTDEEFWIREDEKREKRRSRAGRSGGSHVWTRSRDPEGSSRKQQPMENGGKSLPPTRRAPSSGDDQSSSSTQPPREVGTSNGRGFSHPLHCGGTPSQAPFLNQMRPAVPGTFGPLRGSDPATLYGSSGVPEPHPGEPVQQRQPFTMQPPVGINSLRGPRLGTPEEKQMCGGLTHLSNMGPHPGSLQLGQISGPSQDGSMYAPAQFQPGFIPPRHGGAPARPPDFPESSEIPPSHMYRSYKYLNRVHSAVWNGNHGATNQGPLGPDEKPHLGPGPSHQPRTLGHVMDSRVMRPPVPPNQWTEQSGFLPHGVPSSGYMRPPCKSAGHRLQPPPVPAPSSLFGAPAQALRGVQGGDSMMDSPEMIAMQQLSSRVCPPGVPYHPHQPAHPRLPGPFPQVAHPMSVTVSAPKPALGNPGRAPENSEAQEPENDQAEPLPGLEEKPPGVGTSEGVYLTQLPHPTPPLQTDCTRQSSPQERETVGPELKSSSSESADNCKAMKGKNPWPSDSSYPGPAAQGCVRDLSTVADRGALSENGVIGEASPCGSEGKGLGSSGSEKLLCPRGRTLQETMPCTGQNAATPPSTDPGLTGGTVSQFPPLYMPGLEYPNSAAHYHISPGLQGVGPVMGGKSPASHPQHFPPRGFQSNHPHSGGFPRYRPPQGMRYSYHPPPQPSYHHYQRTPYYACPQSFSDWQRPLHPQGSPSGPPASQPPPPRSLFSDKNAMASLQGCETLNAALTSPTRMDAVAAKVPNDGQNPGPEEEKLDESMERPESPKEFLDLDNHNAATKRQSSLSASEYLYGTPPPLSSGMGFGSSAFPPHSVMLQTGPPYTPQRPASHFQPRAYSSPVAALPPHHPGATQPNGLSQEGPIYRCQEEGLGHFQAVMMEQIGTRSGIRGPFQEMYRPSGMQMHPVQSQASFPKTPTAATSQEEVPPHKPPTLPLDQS

CREB-binding protein = CREB-binding protein (Homo sapiens, UniProt Q92793); assay: Binding affinity to human partial length CREBBP (R1081 to G1197 residues) expressed in bacterial expression system by BROMOscan assay
Protein polybromo-1 = Protein polybromo-1 (Homo sapiens, UniProt Q86U86); assay: Binding affinity to human partial length PBRM1 bromodomain 5 (S645 to D766 residues) expressed in bacterial expression system by BROMOscan assay
Protein polybromo-1, sequence (Q86U86 whole entry, the tested form may be a part): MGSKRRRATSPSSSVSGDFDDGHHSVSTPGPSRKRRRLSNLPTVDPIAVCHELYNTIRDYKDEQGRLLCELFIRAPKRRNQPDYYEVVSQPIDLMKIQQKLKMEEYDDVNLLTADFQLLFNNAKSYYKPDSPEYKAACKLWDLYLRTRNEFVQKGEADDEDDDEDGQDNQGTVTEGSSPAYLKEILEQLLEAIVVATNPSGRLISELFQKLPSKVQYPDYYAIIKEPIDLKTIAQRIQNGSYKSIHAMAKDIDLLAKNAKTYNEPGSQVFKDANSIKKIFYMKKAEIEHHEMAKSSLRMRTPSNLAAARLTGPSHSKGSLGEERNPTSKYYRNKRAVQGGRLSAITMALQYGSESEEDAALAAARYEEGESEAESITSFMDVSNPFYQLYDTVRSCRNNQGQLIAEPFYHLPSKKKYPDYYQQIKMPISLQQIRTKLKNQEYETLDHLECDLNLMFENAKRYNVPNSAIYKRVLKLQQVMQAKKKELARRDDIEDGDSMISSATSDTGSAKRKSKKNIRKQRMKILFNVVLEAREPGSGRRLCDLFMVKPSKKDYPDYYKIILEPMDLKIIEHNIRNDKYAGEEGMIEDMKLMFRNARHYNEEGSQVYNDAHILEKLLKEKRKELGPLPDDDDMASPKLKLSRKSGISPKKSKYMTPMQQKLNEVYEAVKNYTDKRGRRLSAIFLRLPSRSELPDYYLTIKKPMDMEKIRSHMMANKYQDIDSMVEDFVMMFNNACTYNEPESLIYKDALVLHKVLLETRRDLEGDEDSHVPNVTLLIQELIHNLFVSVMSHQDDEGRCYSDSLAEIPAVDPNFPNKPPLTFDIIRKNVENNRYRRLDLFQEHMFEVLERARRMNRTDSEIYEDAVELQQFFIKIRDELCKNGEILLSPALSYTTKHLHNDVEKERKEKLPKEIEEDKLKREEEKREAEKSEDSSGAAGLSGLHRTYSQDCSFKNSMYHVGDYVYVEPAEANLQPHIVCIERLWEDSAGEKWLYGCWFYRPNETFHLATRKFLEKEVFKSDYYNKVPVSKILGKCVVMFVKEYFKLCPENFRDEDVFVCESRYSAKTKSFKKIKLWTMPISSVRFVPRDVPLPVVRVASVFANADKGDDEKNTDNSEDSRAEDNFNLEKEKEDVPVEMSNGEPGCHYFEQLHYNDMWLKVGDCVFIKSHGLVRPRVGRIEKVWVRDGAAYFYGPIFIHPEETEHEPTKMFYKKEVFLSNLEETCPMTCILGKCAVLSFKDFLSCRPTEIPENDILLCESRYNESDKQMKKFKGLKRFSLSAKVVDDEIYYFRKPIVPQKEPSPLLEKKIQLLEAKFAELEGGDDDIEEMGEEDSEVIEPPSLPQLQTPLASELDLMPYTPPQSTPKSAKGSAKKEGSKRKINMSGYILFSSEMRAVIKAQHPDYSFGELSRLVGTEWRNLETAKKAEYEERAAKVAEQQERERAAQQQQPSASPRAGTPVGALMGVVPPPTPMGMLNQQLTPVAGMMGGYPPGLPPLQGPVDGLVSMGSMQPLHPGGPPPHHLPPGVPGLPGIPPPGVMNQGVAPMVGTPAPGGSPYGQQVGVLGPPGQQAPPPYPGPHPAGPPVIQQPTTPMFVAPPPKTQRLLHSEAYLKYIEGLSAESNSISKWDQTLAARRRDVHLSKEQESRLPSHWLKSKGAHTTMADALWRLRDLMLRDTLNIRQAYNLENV

[12] = target: T1, Serine/threonine-protein kinase Chk1 (Homo sapiens) (UniProt O14757); assay: Inhibition of CHK1 (unknown origin) at 1 uM relative to control
T1 sequence (whole entry): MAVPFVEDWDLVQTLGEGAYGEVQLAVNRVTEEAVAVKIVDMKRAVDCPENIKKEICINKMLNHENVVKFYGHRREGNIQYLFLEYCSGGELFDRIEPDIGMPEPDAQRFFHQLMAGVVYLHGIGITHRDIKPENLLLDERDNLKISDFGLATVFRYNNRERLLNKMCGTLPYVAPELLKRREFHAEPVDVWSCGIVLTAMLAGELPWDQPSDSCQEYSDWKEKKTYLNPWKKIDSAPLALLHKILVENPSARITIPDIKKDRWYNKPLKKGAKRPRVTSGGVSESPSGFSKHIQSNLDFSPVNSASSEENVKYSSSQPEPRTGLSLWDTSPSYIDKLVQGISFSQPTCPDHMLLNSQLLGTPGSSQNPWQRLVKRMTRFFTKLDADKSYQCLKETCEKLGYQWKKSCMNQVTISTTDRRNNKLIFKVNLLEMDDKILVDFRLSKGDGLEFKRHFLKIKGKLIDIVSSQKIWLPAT

[13] = target: Serine/threonine-protein kinase pim-1 (Homo sapiens) (UniProt P11309); assay: Inhibition of PIM1 (unknown origin) at 1 uM relative to control
Serine/threonine-protein kinase pim-1 (Homo sapiens), sequence (P11309 whole entry, looked up): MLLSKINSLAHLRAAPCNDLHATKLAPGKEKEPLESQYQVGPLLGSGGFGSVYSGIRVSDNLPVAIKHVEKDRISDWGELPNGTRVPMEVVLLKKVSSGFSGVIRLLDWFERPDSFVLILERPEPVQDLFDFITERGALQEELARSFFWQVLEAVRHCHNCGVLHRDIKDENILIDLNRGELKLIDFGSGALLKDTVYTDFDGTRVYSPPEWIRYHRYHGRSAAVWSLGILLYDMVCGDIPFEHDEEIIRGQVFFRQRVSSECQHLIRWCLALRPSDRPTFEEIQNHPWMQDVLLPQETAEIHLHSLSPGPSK

[14] = target: Beta-1 adrenergic receptor (Homo sapiens) (UniProt P08588); assay: Displacement of [3H](-)CGP 12177 from human beta1 adrenoceptor at 10 uM after 60 mins by scintillation counting analysis relative to control
[15] = target: D(1A) dopamine receptor (Homo sapiens) (UniProt P21728); assay: Displacement of [3H]-SCH 23390 from human recombinant dopamine D1 receptor at 10 uM by scintillation counting 60 mins analysis relative to control
D(1A) dopamine receptor (Homo sapiens), sequence (P21728 whole entry): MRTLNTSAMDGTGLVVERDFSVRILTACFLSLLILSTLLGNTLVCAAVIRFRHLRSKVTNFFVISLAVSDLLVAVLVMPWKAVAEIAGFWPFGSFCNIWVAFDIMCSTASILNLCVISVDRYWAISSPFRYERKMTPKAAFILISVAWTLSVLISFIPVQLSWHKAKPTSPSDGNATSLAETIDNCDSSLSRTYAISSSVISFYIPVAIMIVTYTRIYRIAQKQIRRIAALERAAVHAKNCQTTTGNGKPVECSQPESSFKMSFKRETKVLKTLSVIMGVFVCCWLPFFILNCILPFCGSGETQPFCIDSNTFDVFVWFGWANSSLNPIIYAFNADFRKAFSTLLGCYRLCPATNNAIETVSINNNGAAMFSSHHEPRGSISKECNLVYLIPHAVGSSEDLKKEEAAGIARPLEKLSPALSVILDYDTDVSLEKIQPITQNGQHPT

[16] = target: 5-hydroxytryptamine receptor 2B (Homo sapiens) (UniProt P41595); assay: Displacement of [125I]+/-DOI from human recombinant 5-HT2B receptor at 10 uM after 60 mins by scintillation counting analysis relative to control

| Structure (SMILES) | IC50 [1] | IC50 (LP-1) | IC50 (NCI-H1666) | IC50 [2] | IC50 (LXF-289 cell line) | IC50 (NCI-H1975) | IC50 (NCI-H23) | IC50 [3] | IC50 (NCI-H650) | IC50 (NCI-H82) | IC50 (SK-MES-1) | IC50 [4] | IC50 (HT) | Kd [7] | Kd [8] | Kd [9] | Kd [10] | Kd [11] | Kd (CREB-binding protein) | Kd (Protein polybromo-1) | also measured |
| --- | --- | --- | --- | --- | --- | --- | --- | --- | --- | --- | --- | --- | --- | --- | --- | --- | --- | --- | --- | --- | --- |
| C/C=C/Cn1cc(-c2cc(OC)c(C(=O)N3CCOCC3)cc2OC)c2cc(C)[nH]c2c1=O | 0.54 µM | 2 µM | 2 µM | 2 µM | 2 µM | 2 µM | 2 µM | 2 µM | 2 µM | 2 µM | 2 µM | 2 µM | 2 µM | > 10 µM | > 10 µM | > 10 µM | > 10 µM | 3.6 µM | > 10 µM | > 10 µM | IC50 (OCI-LY19): 2 µM; IC50 [5]: 0.81 µM; IC50 (CAL-120): 2 µM; IC50 (HCC1419): 2 µM; IC50 (HCC1806): 2 µM; IC50 (HCC38): 2 µM; IC50 (SK-BR-3): 2 µM; IC50 [6]: 2 µM; IC50 (RKO): 2 µM; IC50 (SW948): 2 µM; IC50 (MEL-HO): 2 µM; IC50 (NUGC-4): 2 µM; IC50 (A549): 2 µM; inhibition [12]: -7.5%; inhibition [13]: 2%; Activity [14]: 12%; Activity [15]: 4%; Activity [16]: 6% |
| C/C=C/Cn1cc(-c2ccc(C(C)(C)O)cc2OC)c2cc[nH]c2c1=O | 8.14 µM | 19.5 µM | 20 µM | 20 µM | 20 µM | 20 µM | 20 µM | 20 µM | 20 µM | 20 µM | 20 µM | 20 µM | 20 µM | 2.7 µM | 4 µM | 3.7 µM | > 10 µM | > 10 µM | 3.5 µM | > 10 µM | IC50 (OCI-LY19): 14.9 µM; IC50 [5]: 13.5 µM; IC50 (CAL-120): 20 µM; IC50 (HCC1419): 20 µM; IC50 (HCC1806): 20 µM; IC50 (HCC38): 20 µM; IC50 (SK-BR-3): 20 µM; IC50 [6]: 20 µM; IC50 (RKO): 20 µM; IC50 (SW948): 20 µM; IC50 (MEL-HO): 16.5 µM; IC50 (NUGC-4): 20 µM; IC50 (A549): 20 µM; inhibition [12]: 7%; inhibition [13]: 0.5%; Activity [14]: 11%; Activity [15]: 0%; Activity [16]: -2% |
| C/C=C/Cn1cc(-c2ccc(C(=O)N3CCOCC3)cc2)c2cc[nH]c2c1=O | 8.35 µM | 20 µM | 19.5 µM | 20 µM | 20 µM | 20 µM | 20 µM | 20 µM | 20 µM | 20 µM | 20 µM | 20 µM | 20 µM | 4 µM | 4.4 µM | 6.6 µM | > 10 µM | 3.8 µM | > 10 µM | 26 µM | IC50 (OCI-LY19): 20 µM; IC50 [5]: 20 µM; IC50 (CAL-120): 20 µM; IC50 (HCC1419): 20 µM; IC50 (HCC1806): 20 µM; IC50 (HCC38): 20 µM; IC50 (SK-BR-3): 20 µM; IC50 [6]: 20 µM; IC50 (RKO): 20 µM; IC50 (SW948): 20 µM; IC50 (MEL-HO): 20 µM; IC50 (NUGC-4): 20 µM; IC50 (A549): 20 µM; inhibition [12]: 3.4%; inhibition [13]: -3.4%; Activity [14]: 4%; Activity [15]: 6%; Activity [16]: 22% |
| C/C=C/Cn1cc(-c2cc(OC)c(C(C)(C)O)cc2OC)c2cc(C)[nH]c2c1=O |  |  |  |  |  |  |  |  |  |  |  |  |  | > 10 µM | > 10 µM | > 10 µM | > 10 µM | > 10 µM | > 10 µM | > 10 µM |  |
